Results taken from ChEMBL document CHEMBL1129278, “Binding of arylpiperazines, (aryloxy)propanolamines, and tetrahydropyridylindoles to the 5-HT1A receptor: contribution of the molecular lipophilicity potential to three-dimensional quantitative structure-affinity relationship models” (J Med Chem, 1996).

Target: T1, 5-hydroxytryptamine receptor 1A (Rattus norvegicus, UniProt P19327)
T1 sequence (P19327 whole entry): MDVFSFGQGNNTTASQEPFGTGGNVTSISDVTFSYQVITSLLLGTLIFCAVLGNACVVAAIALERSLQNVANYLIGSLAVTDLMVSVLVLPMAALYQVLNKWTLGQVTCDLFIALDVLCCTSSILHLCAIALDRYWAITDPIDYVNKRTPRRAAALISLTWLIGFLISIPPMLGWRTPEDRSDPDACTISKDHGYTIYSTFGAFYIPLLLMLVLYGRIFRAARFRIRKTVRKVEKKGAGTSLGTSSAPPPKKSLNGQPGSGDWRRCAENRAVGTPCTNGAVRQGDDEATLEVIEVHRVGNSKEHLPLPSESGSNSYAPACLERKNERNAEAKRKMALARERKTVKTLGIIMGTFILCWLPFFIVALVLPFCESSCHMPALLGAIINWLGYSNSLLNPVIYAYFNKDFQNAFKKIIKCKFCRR

Ki [nM] | SMILES
0.1 | CCCN(CCCCN1C(=O)CC2(CCCC2)CC1=O)C1COc2cccc(OC)c2C1 (configuration not stated)
10000 | CC(C)NCC(O)COc1ccc(CCOCCOC(C)C)cc1 (configuration not stated)
50.1 | CCCN(CCCN1C(=O)c2ccccc2C1=O)C1COc2cccc(OC)c2C1 (configuration not stated)
1320 | CC(O)CN(CC(C)O)CC(O)COc1cccc2ccccc12 (configuration not stated)
8.51 | O=C1c2ccccc2C(=O)N1CCCCN1CCN(c2ccccc2)CC1
100000 | CC(=O)N1CCN(c2cccc(Cl)c2)CC1
0.501 | CCCN(C1COc2cccc(OC)c2C1)N1C(=O)c2ccccc2S1(=O)=O (configuration not stated)
100000 | O=C(c1ccccc1)N1CCN(c2cccc(Cl)c2)CC1
9.55 | C=CCN(CCC)C1CCc2cccc(OS(=O)(=O)C(F)(F)F)c2C1 (configuration not stated)
5.01 | O=C1c2ccccc2C(=O)N1CCCCN1CCN(c2ccccc2Cl)CC1
60.3 | COc1ccccc1N1CCN(CCCCNCc2ccccc2)CC1
50100 | CN(C)CCCC1(c2ccc(F)cc2)OCc2cc(C#N)ccc21 (configuration not stated) [CITALOPRAM]
6.92 | O=C1c2ccccc2S(=O)(=O)N1CCCCN1CCN(c2ccccn2)CC1
5.62 | COc1ccccc1N1CCN(CCCCCc2ccccc2)CC1
0.501 | CCCN(CCCCNC(=O)c1ccccc1OC)C1COc2cccc(OC)c2C1 (configuration not stated)
4.68 | O=C1c2ccccc2C(=O)N1CCCCN1CCN(c2cccc(Cl)c2)CC1
447 | CCCN(CCC)CC(O)COc1cccc2ccccc12 (configuration not stated)

SMILES | Ki [nM]
Cn1cc(CCN)c2c3c(ccc21)OCCC3 | 2630
CCCN(CCC)C1COc2cccc(OC)c2C1 (configuration not stated) | 10
CCCc1ccc2c(c1CCC)CC(N(CCC)CCC)CO2 (configuration not stated) | 10000
FC(F)(F)c1ccc2c(c1)nc(N1CCNCC1)c1cccn12 | 18.6
CN1CC=C(c2c[nH]c3ccc([N+](=O)[O-])cc23)CC1 | 37.2
